From ChEMBL document CHEMBL1139194, “Antitumor agents. 256. Conjugation of paclitaxel with other antitumor agents: evaluation of novel conjugates as cytotoxic agents” (Bioorg Med Chem Lett, 2007)
The source made the active and inactive calls. The rule behind the calls is not given here.

What was measured:
MCF7 [1] = experiment: Cytotoxicity against human MCF7 cells by sulforhodamine B assay; type: functional; details: read-out: ED50 (the source's name)
HUVEC = experiment: Antiangiogenesis activity against HUVEC cells; type: functional; details: Homo sapiens, read-out: ED50 (the source's name)
LNCaP [2] = experiment: Cytotoxicity against human LNCAP cells by sulforhodamine B assay; type: functional; details: read-out: ED50 (the source's name)
A549 [3] = experiment: Cytotoxicity against human A549 cells by sulforhodamine B assay; type: functional; details: read-out: ED50 (the source's name)
PC-3 [4] = experiment: Cytotoxicity against human PC3 cells by sulforhodamine B assay; type: functional; details: read-out: ED50 (the source's name)
[5] = Cytotoxicity against multi drug-resistant human KBVIN cells at 20 ug/mL by sulforhodamine B assay; type: functional
DU-145 [6] = experiment: Cytotoxicity against human DU145 cells by sulforhodamine B assay; type: functional; details: read-out: ED50 (the source's name)
1A9 [7] = experiment: Cytotoxicity against human 1A9 cells by sulforhodamine B assay; type: functional; details: read-out: ED50 (the source's name)
KB [8] = experiment: Cytotoxicity against human KB cells by sulforhodamine B assay; type: functional; details: read-out: ED50 (the source's name)
[9] = Cytotoxicity against human MRC5 cells by sulforhodamine B assay; type: cell-based; details: read-out: ED50 (the source's name)
[10] = (§1) Cytotoxicity against multi drug-resistant human KBVIN cells by sulforhodamine B assay; type: functional; details: read-out: ED50 (the source's name)
KBVIN = experiment: as §1; type: functional
PC-3 [11] = experiment: Cytotoxicity against human PC3 cells at 20 ug/mL by sulforhodamine B assay; type: functional
LNCaP [12] = experiment: Cytotoxicity against human LNCAP cells at 20 ug/mL by sulforhodamine B assay; type: functional
MCF7 [13] = experiment: Cytotoxicity against human MCF7 cells at 20 ug/mL by sulforhodamine B assay; type: functional
DU-145 [14] = experiment: Cytotoxicity against human DU145 cells at 20 ug/mL by sulforhodamine B assay; type: functional
KB [15] = experiment: Cytotoxicity against human KB cells at 20 ug/mL by sulforhodamine B assay; type: functional
A549 [16] = experiment: Cytotoxicity against human A549 cells at 20 ug/mL by sulforhodamine B assay; type: functional
1A9 [17] = experiment: Cytotoxicity against human 1A9 cells at 20 ug/mL by sulforhodamine B assay; type: functional
[18] = Cytotoxicity against human MRC5 cells at 10 ug/mL by sulforhodamine B assay; type: cell-based; details: read-out: Inhibition

| SMILES | EC50 (MCF7 [1]) [nM] | EC50 (HUVEC) [nM] | EC50 (LNCaP [2]) [nM] | EC50 (A549 [3]) [nM] | EC50 (PC-3 [4]) [nM] | inhibition at 20 µg/mL [5] [%] | EC50 (DU-145 [6]) [nM] | EC50 (1A9 [7]) [nM] | EC50 (KB [8]) [nM] | CC50 [9] [nM] | EC50 [10] [nM] | Activity (KBVIN) | inhibition at 20 µg/mL (PC-3 [11]) [%] | inhibition at 20 µg/mL (LNCaP [12]) [%] | inhibition at 20 µg/mL (MCF7 [13]) [%] | inhibition at 20 µg/mL (DU-145 [14]) [%] | inhibition at 20 µg/mL (KB [15]) [%] | inhibition at 20 µg/mL (A549 [16]) [%] | inhibition at 20 µg/mL (1A9 [17]) [%] | cytotoxicity at 10 ug/mL [18] [%] |
| --- | --- | --- | --- | --- | --- | --- | --- | --- | --- | --- | --- | --- | --- | --- | --- | --- | --- | --- | --- | --- |
| COc1ccc2c(c1)[C@@H](NC(=O)CCC(=O)O[C@@H](C(=O)O[C@H]1C[C@@]3(O)[C@@H](OC(=O)c4ccccc4)[C@@H]4[C@]5(OC(C)=O)CO[C@@H]5C[C@H](O)[C@@]4(C)C(=O)[C@H](OC(C)=O)C(=C1C)C3(C)C)[C@@H](NC(=O)c1ccccc1)c1ccccc1)CCc1cc(OC)c(OC)c(OC)c1-2 | 29.2 | 15.8 | 23.7 | 28.5 | 70.4 | < 50 | 34.4 | 14 | 21.6 |  |  |  |  |  |  |  |  |  |  |  |
| COc1cc([C@@H]2c3cc4c(cc3[C@@H](Nc3ccc(C(=O)NCCC(=O)O[C@H]5C[C@H]6OC[C@@]6(OC(C)=O)[C@H]6[C@H](OC(=O)c7ccccc7)[C@]7(O)C[C@H](OC(=O)[C@H](O)[C@@H](NC(=O)c8ccccc8)c8ccccc8)C(C)=C([C@@H](OC(C)=O)C(=O)[C@]56C)C7(C)C)cc3)[C@H]3COC(=O)[C@H]23)OCO4)cc(OC)c1O | 43.9 |  | 22.1 | 45.6 | 86.3 | < 50 | 83.4 | 20.7 | 31.6 | 3280 |  |  |  |  |  |  |  |  |  |  |
| COc1cc([C@@H]2c3cc4c(cc3[C@@H](O[C@H]3O[C@H]5CO[C@H](C)O[C@@H]5[C@@H](O)[C@@H]3O)[C@H]3COC(=O)[C@H]23)OCO4)cc(OC)c1O | 11700 |  | 530 | 1610 | 9450 |  | 1600 | 285 | 1360 | > 30 | 14400 |  |  |  |  |  |  |  |  |  |
| COc1cc([C@@H]2c3cc4c(cc3[C@@H](Nc3ccc(C(=O)NCCCC(=O)O[C@H]5C[C@H]6OC[C@@]6(OC(C)=O)[C@H]6[C@H](OC(=O)c7ccccc7)[C@]7(O)C[C@H](OC(=O)[C@H](O)[C@@H](NC(=O)c8ccccc8)c8ccccc8)C(C)=C([C@@H](OC(C)=O)C(=O)[C@]56C)C7(C)C)cc3)[C@H]3COC(=O)[C@H]23)OCO4)cc(OC)c1O | 125 |  |  | 1320 |  |  |  | 104 | 347 |  |  | inactive |  |  |  |  |  |  |  |  |
| CC[C@@]1(O)C(=O)OCn2c1cc1c(c2=O)Cc2c-1nc1ccccc1c2/C=N/CCCC(=O)O[C@@H](C(=O)O[C@H]1C[C@@]2(O)[C@@H](OC(=O)c3ccccc3)[C@@H]3[C@]4(OC(C)=O)CO[C@@H]4C[C@H](O)[C@@]3(C)C(=O)[C@H](OC(C)=O)C(=C1C)C2(C)C)[C@@H](NC(=O)c1ccccc1)c1ccccc1 | 34.1 | 0.98 | 0.34 | 1.9 | 19.4 |  | 1.9 | 1 | 1.5 | 244 | 56.3 |  |  |  |  |  |  |  |  |  |
| COc1cc2c(c(OC)c1OC(=O)CCC(=O)O[C@@H](C(=O)O[C@H]1C[C@@]3(O)[C@@H](OC(=O)c4ccccc4)[C@@H]4[C@]5(OC(C)=O)CO[C@@H]5C[C@H](O)[C@@]4(C)C(=O)[C@H](OC(C)=O)C(=C1C)C3(C)C)[C@@H](NC(=O)c1ccccc1)c1ccccc1)-c1ccc(SC)c(=O)cc1[C@@H](NC(C)=O)CC2 | 24.7 | 9.33 | 19.5 | 23.2 | 71.8 | < 50 | 29.8 | 10.3 | 17 |  |  |  |  |  |  |  |  |  |  |  |
| COc1cc2c(c(OC)c1OC(=O)CCC(=O)O[C@@H](C(=O)O[C@H]1C[C@@]3(O)[C@@H](OC(=O)c4ccccc4)[C@@H]4[C@]5(OC(C)=O)CO[C@@H]5C[C@H](O)[C@@]4(C)C(=O)[C@H](OC(C)=O)C(=C1C)C3(C)C)[C@@H](NC(=O)c1ccccc1)c1ccccc1)-c1ccc(OC)c(=O)cc1[C@@H](NC(C)=O)CC2 | 26.5 | 13.8 | 12.9 | 27.3 | 50.7 | < 50 | 31.9 | 10.6 | 19 |  |  |  |  |  |  |  |  |  |  |  |
| CC1(C)[C@@H](O)CC[C@]2(C)[C@H]3C(=O)C=C4[C@@H]5C[C@@](C)(C(=O)O)CC[C@]5(C)CC[C@@]4(C)[C@]3(C)CC[C@@H]12 [ENOXOLONE] |  |  |  |  |  | < 50 |  |  |  |  |  |  | < 50 | < 50 | < 50 | < 50 | < 50 | < 50 | < 50 |  |
| COc1cc([C@@H]2c3cc4c(cc3[C@@H](Nc3ccc(C(=O)NCCC(=O)O[C@@H](C(=O)O[C@H]5C[C@@]6(O)[C@@H](OC(=O)c7ccccc7)[C@@H]7[C@]8(OC(C)=O)CO[C@@H]8C[C@H](O)[C@@]7(C)C(=O)[C@H](OC(C)=O)C(=C5C)C6(C)C)[C@@H](NC(=O)c5ccccc5)c5ccccc5)cc3)[C@H]3COC(=O)[C@H]23)OCO4)cc(OC)c1O | 6.4 | 4.93 | 4.2 | 10.1 | 12.1 |  | 8.6 | 2.9 | 8.4 |  | 9960 |  |  |  |  |  |  |  |  | < 50 |
| COc1cc([C@@H]2c3cc4c(cc3[C@@H](Nc3ccc(C(=O)NCCCC(=O)O[C@@H](C(=O)O[C@H]5C[C@@]6(O)[C@@H](OC(=O)c7ccccc7)[C@@H]7[C@]8(OC(C)=O)CO[C@@H]8C[C@H](O)[C@@]7(C)C(=O)[C@H](OC(C)=O)C(=C5C)C6(C)C)[C@@H](NC(=O)c5ccccc5)c5ccccc5)cc3)[C@H]3COC(=O)[C@H]23)OCO4)cc(OC)c1O | 22.1 |  | 10.2 | 23.7 | 42.8 |  | 32.5 | 8.1 | 13.9 | 6170 | 6230 |  |  |  |  |  |  |  |  |  |
| CC[C@@]1(O)C(=O)OCn2c1cc1c(c2=O)Cc2c-1nc1ccccc1c2/C=N/CCC(=O)O[C@@H](C(=O)O[C@H]1C[C@@]2(O)[C@@H](OC(=O)c3ccccc3)[C@@H]3[C@]4(OC(C)=O)CO[C@@H]4C[C@H](O)[C@@]3(C)C(=O)[C@H](OC(C)=O)C(=C1C)C2(C)C)[C@@H](NC(=O)c1ccccc1)c1ccccc1 | 26.7 | 0.73 | 3 | 2.6 | 14.8 |  | 3.7 | 1.6 | 1.3 | 178 | 62.4 |  |  |  |  |  |  |  |  |  |
| CC[C@@]1(O)C(=O)OCn2c1cc1c(c2=O)Cc2c-1nc1ccccc1c2CNCCC(=O)O[C@@H](C(=O)O[C@H]1C[C@@]2(O)[C@@H](OC(=O)c3ccccc3)[C@@H]3[C@]4(OC(C)=O)CO[C@@H]4C[C@H](O)[C@@]3(C)C(=O)[C@H](OC(C)=O)C(=C1C)C2(C)C)[C@@H](NC(=O)c1ccccc1)c1ccccc1 | 2.7 | 2.09 | 1.2 | 2.6 | 3.1 |  | 2.3 | 1.5 | 1.9 | 6130 | 2050 |  |  |  |  |  |  |  |  |  |
